Experimental data as given in publication PMC5936756, “Ionizing Radiation Induces Morphological Changes and Immunological Modulation of Jurkat Cells” (Frontiers in Immunology, 2018).

Legend:
[1] = tested on: peripheral blood lymphocytes (PBL); experiment: Determination of cell diameter of PBL after mitogen stimulation; format: cell-based, human; conditions: PHA-L 7.2 µg/ml, 48 h
Description: Jurkat cells (ACC 282) were purchased from the German Collection of Microorganisms and Cell Cultures (DSMZ, Braunschweig, Germany). The human EC line EA.hy926 (Crl-2922) was established by fusion of human umbilical vein ECs and the adenocarcinoma epithelial cell line A549 ([18]) and was purchased from ATCC (LGC Standards, Wesel, Germany). Cells were either grown in RPMI 1640 medium (Jurkat), supplemented with 10% heat inactivated fetal calf serum (FCS; PAA, Cölbe, Germany) and 2 mM L-glutamine or in Dulbecco’s modified Eagle’s medium (Invitrogen, Karlsruhe, Germany), supplemented with 10% FCS 50 U/ml penicillin and 5 µg/ml streptomycin (Sigma-Aldrich, Munich, Germany). PBL were isolated from buffy coats using density gradient centrifugation (Biochrom, Berlin, Germany). After centrifugation (40 min at 1,000 × g, RT) interphase cells were isolated, washed twice with PBS, and pelleted by centrifugation (300 × g, 10 min). For adhesion assays, Jurkat cells and PBL were biotinylated by incubation (15 min on ice) with a biotin-N-hydroxysuccinimid ester (NHS-biotin, 10 mg/ml, Sigma-Aldrich) and maintained in RPMI 1640 Medium with 20% FCS, 1% HEPES, and 1% penicillin/streptomycin prior to assays. […]
Cell diameters were measured with an EVE automatic cell counter (NanoEnTek, Seoul, South Korea). […]

[2] = target: T1, KCa2.2 channels (Homo sapiens, UniProt Q9H2S1); experiment: Whole cell patch clamp recording of background current Ib in Jurkat cells; format: cell-based; conditions: Tamapin 10 nM
T1 construct: This small current includes, among others, the voltage independent small conductance K^+ channel KCa2.2; endogenous in cells; host or cells: Jurkat cells (ACC 282, DSMZ)
T1 sequence (Q9H2S1 whole entry): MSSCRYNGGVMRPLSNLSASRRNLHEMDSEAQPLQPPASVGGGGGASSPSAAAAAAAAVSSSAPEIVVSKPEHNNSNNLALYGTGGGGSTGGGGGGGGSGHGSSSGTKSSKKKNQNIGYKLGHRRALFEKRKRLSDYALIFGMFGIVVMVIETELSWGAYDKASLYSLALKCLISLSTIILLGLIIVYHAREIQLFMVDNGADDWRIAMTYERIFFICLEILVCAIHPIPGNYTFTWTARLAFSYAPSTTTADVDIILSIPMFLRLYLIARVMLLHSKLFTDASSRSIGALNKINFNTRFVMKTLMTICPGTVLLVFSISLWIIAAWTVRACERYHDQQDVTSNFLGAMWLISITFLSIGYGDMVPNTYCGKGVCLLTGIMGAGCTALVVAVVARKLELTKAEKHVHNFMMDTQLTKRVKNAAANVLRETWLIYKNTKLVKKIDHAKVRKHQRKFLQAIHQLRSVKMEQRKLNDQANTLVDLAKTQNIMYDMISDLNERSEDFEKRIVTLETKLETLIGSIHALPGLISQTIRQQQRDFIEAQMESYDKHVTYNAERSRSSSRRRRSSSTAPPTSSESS
Description: (§1) Cells were exposed to X-ray irradiation in cell culture flasks using an Isovolt 160 Titan E source with a voltage of 90 kV and 33.7 mA (GE Sensing & Inspection Technologies, Alzenau, Germany). Doses were delivered at a 30 cm source to probe distance with cell culture flasks placed on a 2 mm aluminum sheet. CDK1-inhibitor RO3306 (Axon Medchem, Groningen, Netherlands) was dissolved in DMSO at 14.2 mM and added to the cell culture medium in a final concentration of 3 µM. Cyclosporin A (Sigma-Aldrich) was dissolved in ddH2O and added to the cell culture medium of non-irradiated control cells or directly after irradiation of cells in a concentration of 1 µM. The cell permeable Ca^2+ buffer BAPTA-AM [1,2-Bis(2-aminophenoxy)ethane-N,N,N',N'-tetraacetic acid tetrakis(acetoxymethyl) ester, Thermo Fisher] was added to the cell culture medium 30 min prior to cell irradiation at 50 µM and was removed immediately after irradiation. Phytohemagglutinin (PHA-L) was purchased from Biochrom (Berlin, Germany). Cells were treated for 48 h by adding PHA-L to the cell culture medium at a concentration of 7.2 µg/ml. […]
Membrane currents of cells were recorded in a whole cell configuration ([26]) using an EPC-9 amplifier (HEKA Electronics, Lambrecht, Germany). […] Currents were recorded and data analyzed with an EPC-9 amplifier and Patchmaster Software (all from Heka Electronic).

[3] = tested on: KCa2.2 channels; conditions: cited from earlier work
[4] = tested on: Jurkat cells; experiment: Cell cycle analysis by flow cytometry (PI DNA content, cells in G2); format: cell-based, human; conditions: non-irradiated Jurkat cells, 3 µM RO3306
Description: as §1, with “irradiation.” for “irradiation. Phytohemagglutinin (PHA-L) was purchased from Biochrom (Berlin, Germany). Cells were treated for 48 h by adding PHA-L to the cell culture medium at a concentration of 7.2 µg/ml.”
Flow cytometric analyses were performed after 48 h following irradiation with propidium iodide (PI) solution (4% PI stock, 0.5 mg/ml PI, 38 mM sodium citrate, pH 7), 5% RNAse A stock (RNAse A 5 mg/ml, Tris–HCl 10 mM, NaCl 15 mM, pH 7) using a BioRad S3 Cell Sorter and the FlowJo 10 software for analysis (FlowJo LLC). The percentage of cells in G2/M phases was determined by single-parameter histograms of DNA content.

[5] = tested on: Jurkat cells; experiment: Determination of cell diameter of Jurkat cells (EVE automatic cell counter); format: cell-based, human
Description: Cell diameters were measured with an EVE automatic cell counter (NanoEnTek, Seoul, South Korea). For cell diameter studies, a suitable protocol for Jurkat cells was established and all measurements were validated by visual inspection and if necessary corrected by hand using a personal computer based software. Viability was estimated by using trypan blue exclusion assays.
Cells were exposed to X-ray irradiation in cell culture flasks using an Isovolt 160 Titan E source with a voltage of 90 kV and 33.7 mA (GE Sensing & Inspection Technologies, Alzenau, Germany). Doses were delivered at a 30 cm source to probe distance with cell culture flasks placed on a 2 mm aluminum sheet. CDK1-inhibitor RO3306 (Axon Medchem, Groningen, Netherlands) was dissolved in DMSO at 14.2 mM and added to the cell culture medium in a final concentration of 3 µM. Cyclosporin A (Sigma-Aldrich) was dissolved in ddH2O and added to the cell culture medium of non-irradiated control cells or directly after irradiation of cells in a concentration of 1 µM. The cell permeable Ca^2+ buffer BAPTA-AM [1,2-Bis(2-aminophenoxy)ethane-N,N,N',N'-tetraacetic acid tetrakis(acetoxymethyl) ester, Thermo Fisher] was added to the cell culture medium 30 min prior to cell irradiation at 50 µM and was removed immediately after irradiation. Phytohemagglutinin (PHA-L) was purchased from Biochrom (Berlin, Germany). Cells were treated for 48 h by adding PHA-L to the cell culture medium at a concentration of 7.2 µg/ml. To activate human T-cells ImmunoCult™ Human CD3/CD28/CD2 T Cell Activator (Stem cell Technologies, Vancouver, BC, Canada) was added to the cell culture medium (25 µL per 1 mL of cell suspension) and maintained at 37°C and 5% CO2 for 48 h. The KCa2.2-specific ion channel blocker Tamapin was purchased from Alomone Labs (Jerusalem, Israel) and dissolved in purified water and diluted in external solution for patch clamp experiments.

Molecule: Phytohemagglutinin [PHA-L]
- fraction of cells with increased mean size ([1]; PBL from healthy donors, fit with two Gaussians): 45%
- mean size (diameter) of the enlarged cell population ([1]; PBL, mock treated 7.2 µm): 10.2 µm

Molecule: Tamapin: scorpion toxin, KCa2.2-specific ion channel blocker (Alomone Labs) (AFCNLRRCELSCRSLGLLGKCIGEECKCVPY; UniProt P59869 1-31, looked up)
- inhibition of Ib ([2]; irradiated Jurkat cells (1.25 Gy, 48 h after X-ray)): 23 ± 10%
- inhibition of Ib ([2]; mock-irradiated control Jurkat cells, N = 3): 3.3 ± 0.7%
- IC50 [3]: 0.024 nM

Molecule: O=C1NC(=NCc2cccs2)S/C1=C\c1ccc2ncccc2c1 [RO3306]
- cells arrested in G2 phase [4]: 71%
- increase in cell diameter ([5]; non-irradiated Jurkat cells, 3 µM RO3306): 9.6 ± 3%

Molecule: CC(=O)OCOC(=O)CN(CC(=O)OCOC(C)=O)c1ccccc1OCCOc1ccccc1N(CC(=O)OCOC(C)=O)CC(=O)OCOC(C)=O [BAPTA-AM, 1,2-Bis(2-aminophenoxy)ethane-N,N,N',N'-tetraacetic acid tetrakis(acetoxymethyl) ester]
- effect on radiation-induced increase in cell diameter ([5]; Jurkat cells irradiated with 2 Gy, cyclosporine A 1 µM or BAPTA-AM 50 µM): decreased the effect of irradiation
- reduction of the radiation-induced cell diameter increase ([5]; irradiated Jurkat cells, cyclosporine A 1 µM or BAPTA-AM 50 µM): 50%
